# pEC50: −log10 of the molar value. The source made the active and inactive calls.
# Columns and labels:
# [1] = biological target: T1, Polyadenylate-binding protein 1 (Homo sapiens, UniProt P11940); assay: PABP inhibition in translation initiation, SAR follow-up (AID 435018); type: functional
# [2] = biological target: Eukaryotic translation initiation factor 4H (Homo sapiens, UniProt Q15056); assay: inhibitors of translation initiation factor eIF4H – SAR follow-up (AID 435011); type: functional
# [3] = biological target: Voltage-dependent T-type calcium channel subunit alpha-1H (Homo sapiens, UniProt O95180); assay: human CACNA1H calcium influx blockade – cell-based, synthetic library set 1, calcium flux (AID 493022); type: functional
# [4] = biological target: T2, Short transient receptor potential channel 4 (Mus musculus, UniProt Q9QUQ5); assay: potentiation of DAMGO-evoked TRPC4 calcium signal – cell-based, HEK293 TRPC4/mu-opioid, Fluo-4 calcium, EC20 DAMGO, dose response (AID 434941); type: functional
# T2 sequence (Q9QUQ5 whole entry): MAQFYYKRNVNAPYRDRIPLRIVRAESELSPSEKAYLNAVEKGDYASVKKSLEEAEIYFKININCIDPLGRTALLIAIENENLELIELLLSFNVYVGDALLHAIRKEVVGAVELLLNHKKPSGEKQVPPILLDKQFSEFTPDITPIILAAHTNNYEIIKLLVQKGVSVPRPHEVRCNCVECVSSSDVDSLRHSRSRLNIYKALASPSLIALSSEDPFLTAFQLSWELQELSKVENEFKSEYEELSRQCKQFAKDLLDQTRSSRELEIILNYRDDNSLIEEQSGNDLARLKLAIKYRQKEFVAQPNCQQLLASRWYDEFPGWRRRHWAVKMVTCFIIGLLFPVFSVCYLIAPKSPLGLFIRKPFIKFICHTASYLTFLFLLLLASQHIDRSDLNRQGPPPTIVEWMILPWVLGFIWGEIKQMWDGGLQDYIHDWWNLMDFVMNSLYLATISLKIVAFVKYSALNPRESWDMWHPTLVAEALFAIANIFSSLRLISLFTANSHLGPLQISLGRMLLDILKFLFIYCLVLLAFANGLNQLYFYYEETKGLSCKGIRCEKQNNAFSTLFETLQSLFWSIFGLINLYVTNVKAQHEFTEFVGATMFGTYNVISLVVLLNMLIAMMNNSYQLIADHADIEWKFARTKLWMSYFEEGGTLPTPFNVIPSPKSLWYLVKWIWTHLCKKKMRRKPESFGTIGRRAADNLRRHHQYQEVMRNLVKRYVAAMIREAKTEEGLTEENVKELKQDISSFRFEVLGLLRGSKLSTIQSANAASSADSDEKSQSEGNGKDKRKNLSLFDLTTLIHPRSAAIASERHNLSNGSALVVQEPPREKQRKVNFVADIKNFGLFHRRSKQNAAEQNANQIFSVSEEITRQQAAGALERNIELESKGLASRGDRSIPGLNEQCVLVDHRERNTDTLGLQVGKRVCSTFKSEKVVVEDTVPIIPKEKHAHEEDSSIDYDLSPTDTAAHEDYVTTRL
# [5] = biological target: Endoplasmic reticulum aminopeptidase 1 (Homo sapiens, UniProt Q9NZ08); assay: inhibition of human ERAP1 enzyme activity – biochemical, cherry-pick, set 2, plate reader, dose response (AID 743314)
# [6] = biological target: Female germline-specific tumor suppressor gld-1 (Caenorhabditis elegans, UniProt Q17339); assay: blockers of GLD-1/TGE RNA complex formation – biochemical, fluorescence polarization, C. elegans, dose response (AID 2802);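 also: fluorescence polarization of labeled TGE RNA bound by purified gld-1 protein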
# Protein Rev = Protein Rev (Human immunodeficiency virus type 1 group M subtype B (isolate HXB2)(HIV-1), UniProt P04618); assay: blockers of HIV Rev/RRE RNA complex – biochemical, fluorescence polarization, HIV-1, dose response (AID 434976); parameters: species or system Human immunodeficiency virus 1
# [7] = biological target: T1, Polyadenylate-binding protein 1; assay: MLLE domain peptide-binding blockers, IC50 – biochemical, fluorescence polarization, FITC-PAM2 peptide, dose response (AID 602259); type: functional; conditions: read-out: IC50_Mean
# [8] = biological target: T1, Polyadenylate-binding protein 1; assay: MLLE binding blockers, Cy5 peptide tracer – biochemical, fluorescence polarization, Cy5-PAM2 peptide, secondary, miRNA deadenylation inhibitor project, dose response (AID 602260); type: functional; conditions: read-out: IC50_Mean
# Beta-galactosidase = Beta-galactosidase (Escherichia coli, UniProt Q8VNN2); assay: detection-enzyme interference by beta-gal modulators – biochemical, E. coli enzyme, set 3, artefact control for CCR6 antagonist project, dose response (AID 504712); type: functional
# [9] = biological target: C-C chemokine receptor type 6 (Homo sapiens, UniProt P51684); assay: antagonism of CCR6 beta-arrestin recruitment – cell-based, luminescent beta-arrestin readout, dose response (AID 504728); type: functional
# [10] = biological target: Luciferin 4-monooxygenase (Photinus pyralis, UniProt P08659); assay: inhibition of purified Photinus pyralis luciferase – biochemical, luminescence, dose response (AID 1891)
# [11] = Luminescence Cell-Based Dose Response HTS to Identify Inhibitors of 5'UTR Stem-Loop Driven Prion Protein mRNA Translation in H4 Neuroglioblastoma Cells. [Related pubchem assays: 1827 (Project Summary), 1813 (Primary HTS)]; type: functional
# [12] = luciferase reporter signal suppression in cells – H4 neuroglioma cells, luminescence, dose response (AID 1990); type: functional, cell-based
# [13] = alpha-synuclein stem-loop luciferase translation blockers – H4 neuroglioma cells, luminescence, confirmation (AID 1988); type: functional, cell-based
# [14] = ADP-Glo luciferase signal interference – biochemical, luminescence, cherry-picked samples, set 2, artefact control for CDK5 inhibitor project, dose response (AID 504546); type: functional, cell-based
# cells = type: functional
# HEK293 = assay: EBV LMP1 TES2 canonical NF-kB signalling blockers – cell-based, HEK293, luciferase, cherry-pick, dose response (AID 588343); type: functional; conditions: Homo sapiens
# [15] = Luminescence Cell-Based Dose Confirmation HTS to Identify Inhibitors of Platelet Dense Granule Release. [Related pubchem assays: 1663 (Primary HTS), 1678 (Summary of Project)]; type: functional
# [16] = biological target: Cyclin-dependent kinase 5/CDK5 activator 1 (Homo sapiens, UniProt Q00535); assay: blockade of human CDK5 activity – biochemical, cherry-picked samples, set 2, dose response (AID 504545)
# Melanocortin receptor 4 = Melanocortin receptor 4 (Homo sapiens, UniProt P32245); type: functional, cell-based;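 also: Cell-based assay with luminescence read-out, confirmatory dose-response testing for agonist activity of biased ligands at MC4R; human U2OS cells with tagged receptor and beta-arrestin; potency of agonists that increase receptor coupling to beta-arrestin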
# [17] = biological target: T3, Kappa-type opioid receptor (Homo sapiens, UniProt P41145); type: functional
# Mu-type opioid receptor = Mu-type opioid receptor (Homo sapiens, UniProt P35372); assay: HTS Image-Based Screen for Agonists of the MOR Receptor. [Related pubchem assays (depositor defined):AID1777, AID1785, AID1786, AID2133]; type: functional;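 also: imaging of beta-arrestin GFP recruitment into spots after receptor activation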
# [18] = biological target: T4, Delta-type opioid receptor (Homo sapiens, UniProt P41143); assay: HTS Image-Based Screen for Antagonists of the DOR Receptor. [Related pubchem assays (depositor defined):AID1777, AID1785, AID1786, AID2133]; type: functional
# [19] = biological target: T4, Delta-type opioid receptor; assay: HTS Image-Based Screen for Agonists of the DOR Receptor. [Related pubchem assays (depositor defined):AID1777, AID1786, AID2133]; type: functional
# [20] = biological target: T3, Kappa-type opioid receptor; type: functional; remark: listed apart in the source
# [21] = biological target: T5, Microphthalmia-associated transcription factor (Homo sapiens, UniProt O75030); assay: reducers of TRPM1 reporter luminescence, concentration series – cell-based, SK-MEL-5, cherry-picked, set 3, MITF inhibitor project, dose response (AID 493073); type: functional;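 also: SK-MEL-5 melanoma cells with luciferase driven by the MITF target TRPM1 promoter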
# T5 sequence (O75030 whole entry): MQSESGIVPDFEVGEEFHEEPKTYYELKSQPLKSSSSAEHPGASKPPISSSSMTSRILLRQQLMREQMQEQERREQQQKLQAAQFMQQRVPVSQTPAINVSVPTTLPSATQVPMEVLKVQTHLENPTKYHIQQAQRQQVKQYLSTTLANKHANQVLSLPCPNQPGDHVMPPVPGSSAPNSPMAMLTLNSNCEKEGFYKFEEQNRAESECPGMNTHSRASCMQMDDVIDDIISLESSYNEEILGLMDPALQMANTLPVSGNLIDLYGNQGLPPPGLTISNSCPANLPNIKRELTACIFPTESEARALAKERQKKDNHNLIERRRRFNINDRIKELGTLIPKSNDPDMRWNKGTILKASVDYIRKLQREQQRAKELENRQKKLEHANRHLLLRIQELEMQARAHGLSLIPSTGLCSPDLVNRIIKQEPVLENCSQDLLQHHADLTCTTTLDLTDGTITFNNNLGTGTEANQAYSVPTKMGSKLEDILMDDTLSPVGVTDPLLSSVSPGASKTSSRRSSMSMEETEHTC
# Vero = assay: cells; type: functional; conditions: Chlorocebus sabaeus
# [22] = biological target: Neurotensin receptor type 1 (Homo sapiens, UniProt P30989); type: functional;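 also: Image-based confirmatory dose-response assay measuring agonist activity at NTR1; NTR1-expressing U2OS osteosarcoma cells imaged for beta-arrestin GFP spot formation; agonist potency where compounds increase beta-arrestin recruitment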
# [23] = biological target: T6, Corticotropin-releasing factor receptor 2/Corticotropin-releasing factor-binding protein (Homo sapiens, UniProt P24387+Q13324); assay: activators of CRF receptor 2 with binding protein – uHTS hits, confirmation (AID 602473); type: functional; conditions: read-out: EC50_Mean
# T6 sequence (Q13324 whole entry): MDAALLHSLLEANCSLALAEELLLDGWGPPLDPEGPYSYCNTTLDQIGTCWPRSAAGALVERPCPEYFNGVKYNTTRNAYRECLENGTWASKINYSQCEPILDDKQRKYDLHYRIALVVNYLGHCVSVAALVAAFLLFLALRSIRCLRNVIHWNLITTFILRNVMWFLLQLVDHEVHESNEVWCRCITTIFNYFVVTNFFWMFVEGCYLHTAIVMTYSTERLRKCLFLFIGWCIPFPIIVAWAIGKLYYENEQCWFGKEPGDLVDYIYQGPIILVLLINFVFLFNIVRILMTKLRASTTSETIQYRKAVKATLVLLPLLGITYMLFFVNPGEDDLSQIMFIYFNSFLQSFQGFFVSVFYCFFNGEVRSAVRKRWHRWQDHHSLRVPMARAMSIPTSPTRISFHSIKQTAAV
# T6 sequence (P24387 whole entry): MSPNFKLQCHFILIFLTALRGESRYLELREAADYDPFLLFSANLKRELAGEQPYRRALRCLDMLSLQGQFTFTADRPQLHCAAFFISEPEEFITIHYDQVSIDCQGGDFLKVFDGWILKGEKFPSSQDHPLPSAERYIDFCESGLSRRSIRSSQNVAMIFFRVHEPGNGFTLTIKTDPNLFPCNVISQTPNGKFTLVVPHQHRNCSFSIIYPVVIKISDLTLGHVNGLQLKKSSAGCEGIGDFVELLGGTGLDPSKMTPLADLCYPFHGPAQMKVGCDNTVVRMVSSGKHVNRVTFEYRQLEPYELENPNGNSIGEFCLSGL
# [24] = biological target: T6, Corticotropin-releasing factor receptor 2/Corticotropin-releasing factor-binding protein; assay: Dose Response confirmation of uHTS hits for small molecule antagonists of the CRF-binding protein and CRF-R2 receptor complex.; type: functional; conditions: read-out: IC50_Mean
# Caspase-7 = Caspase-7 (Homo sapiens, UniProt P55210); assay: activation of caspase-7 zymogen – biochemical, absorbance, counter-screen for procaspase-3 activator project, dose response (AID 489013)
# Cytochrome P450 3A4 = Cytochrome P450 3A4 (Homo sapiens, UniProt P08684);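 also: CYP3A4 tested as one member of a cytochrome P450 panel screen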
# Caspase-3 = biological target: T7, Caspase-3 (Homo sapiens, UniProt P42574); assay: activation of caspase-3 zymogen – biochemical, absorbance, dose response (AID 489014)
# T7 sequence (P42574 whole entry): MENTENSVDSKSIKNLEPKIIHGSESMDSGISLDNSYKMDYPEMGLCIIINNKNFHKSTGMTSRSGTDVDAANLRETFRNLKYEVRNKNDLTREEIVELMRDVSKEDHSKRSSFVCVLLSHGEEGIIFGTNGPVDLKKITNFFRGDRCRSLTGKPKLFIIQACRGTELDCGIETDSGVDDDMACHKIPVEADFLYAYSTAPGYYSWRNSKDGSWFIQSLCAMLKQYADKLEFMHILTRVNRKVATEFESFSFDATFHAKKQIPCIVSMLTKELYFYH
# T1 sequence (P11940 whole entry): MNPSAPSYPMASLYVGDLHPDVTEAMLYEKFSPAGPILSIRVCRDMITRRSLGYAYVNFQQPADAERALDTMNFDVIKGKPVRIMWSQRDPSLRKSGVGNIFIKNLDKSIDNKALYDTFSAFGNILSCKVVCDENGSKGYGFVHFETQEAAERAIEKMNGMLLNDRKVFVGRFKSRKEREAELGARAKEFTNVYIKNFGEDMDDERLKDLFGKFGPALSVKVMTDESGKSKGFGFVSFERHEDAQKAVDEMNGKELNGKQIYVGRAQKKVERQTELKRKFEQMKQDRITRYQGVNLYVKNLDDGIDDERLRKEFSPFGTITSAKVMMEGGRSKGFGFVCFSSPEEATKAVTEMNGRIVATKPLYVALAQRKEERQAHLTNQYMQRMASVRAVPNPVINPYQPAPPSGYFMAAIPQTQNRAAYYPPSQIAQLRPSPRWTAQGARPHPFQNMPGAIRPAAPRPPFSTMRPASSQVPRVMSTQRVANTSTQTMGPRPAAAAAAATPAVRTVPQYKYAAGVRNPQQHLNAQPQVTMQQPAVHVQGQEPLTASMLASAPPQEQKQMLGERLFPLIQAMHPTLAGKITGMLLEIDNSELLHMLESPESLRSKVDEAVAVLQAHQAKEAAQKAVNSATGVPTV
# T3 sequence (P41145 whole entry): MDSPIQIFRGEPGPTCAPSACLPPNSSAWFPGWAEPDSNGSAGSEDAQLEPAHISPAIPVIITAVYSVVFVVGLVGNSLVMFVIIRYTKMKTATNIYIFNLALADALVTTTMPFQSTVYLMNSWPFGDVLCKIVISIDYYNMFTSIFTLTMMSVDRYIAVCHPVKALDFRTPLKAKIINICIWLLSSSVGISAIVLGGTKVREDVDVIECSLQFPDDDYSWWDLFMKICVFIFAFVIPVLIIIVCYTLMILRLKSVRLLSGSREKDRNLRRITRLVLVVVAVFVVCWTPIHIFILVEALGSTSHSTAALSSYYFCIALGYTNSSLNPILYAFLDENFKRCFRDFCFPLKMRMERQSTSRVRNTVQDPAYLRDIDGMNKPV
# T4 sequence (P41143 whole entry): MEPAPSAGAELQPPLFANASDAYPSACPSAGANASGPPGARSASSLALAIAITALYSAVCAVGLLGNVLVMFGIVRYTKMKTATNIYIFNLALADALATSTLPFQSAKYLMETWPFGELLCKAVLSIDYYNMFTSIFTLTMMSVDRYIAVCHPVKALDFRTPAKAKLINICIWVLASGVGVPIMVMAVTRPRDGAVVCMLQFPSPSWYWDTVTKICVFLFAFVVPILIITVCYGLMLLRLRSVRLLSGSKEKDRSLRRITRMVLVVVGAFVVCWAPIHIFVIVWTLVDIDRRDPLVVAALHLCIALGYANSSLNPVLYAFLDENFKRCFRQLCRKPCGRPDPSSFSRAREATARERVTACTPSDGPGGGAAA
# Chain of Protein Rev (P04618 whole entry, the tested form may be a part): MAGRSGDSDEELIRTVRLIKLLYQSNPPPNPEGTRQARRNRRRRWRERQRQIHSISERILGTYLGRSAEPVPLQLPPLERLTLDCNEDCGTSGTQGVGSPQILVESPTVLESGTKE
# Chain of Luciferin 4-monooxygenase (P08659 whole entry): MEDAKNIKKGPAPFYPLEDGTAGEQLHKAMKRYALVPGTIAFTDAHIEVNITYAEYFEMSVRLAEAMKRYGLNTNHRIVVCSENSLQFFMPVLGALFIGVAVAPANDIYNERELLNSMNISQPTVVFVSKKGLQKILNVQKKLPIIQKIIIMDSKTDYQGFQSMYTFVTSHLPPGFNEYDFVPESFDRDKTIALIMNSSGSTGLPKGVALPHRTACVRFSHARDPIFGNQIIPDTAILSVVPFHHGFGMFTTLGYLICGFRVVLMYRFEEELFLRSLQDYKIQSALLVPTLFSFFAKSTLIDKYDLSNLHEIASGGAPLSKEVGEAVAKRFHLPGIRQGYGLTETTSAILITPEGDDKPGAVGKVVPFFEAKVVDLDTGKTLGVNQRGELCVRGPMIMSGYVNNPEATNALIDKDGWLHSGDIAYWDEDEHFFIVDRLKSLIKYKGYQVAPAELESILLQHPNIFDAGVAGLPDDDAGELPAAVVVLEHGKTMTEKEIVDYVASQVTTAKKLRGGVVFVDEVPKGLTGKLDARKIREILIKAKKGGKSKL
# Chain of Caspase-7 (P55210 24-198 limits assumed): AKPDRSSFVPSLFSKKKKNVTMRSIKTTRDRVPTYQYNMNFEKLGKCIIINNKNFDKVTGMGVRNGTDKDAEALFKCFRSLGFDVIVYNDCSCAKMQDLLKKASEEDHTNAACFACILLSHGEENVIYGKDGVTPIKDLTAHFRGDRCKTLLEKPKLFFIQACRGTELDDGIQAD
# Chain of Caspase-7 (P55210 207-303 limits assumed): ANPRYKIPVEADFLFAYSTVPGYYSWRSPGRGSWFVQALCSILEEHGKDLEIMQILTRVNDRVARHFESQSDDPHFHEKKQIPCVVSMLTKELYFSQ
# Chain of C-C chemokine receptor type 6 (P51684 whole entry): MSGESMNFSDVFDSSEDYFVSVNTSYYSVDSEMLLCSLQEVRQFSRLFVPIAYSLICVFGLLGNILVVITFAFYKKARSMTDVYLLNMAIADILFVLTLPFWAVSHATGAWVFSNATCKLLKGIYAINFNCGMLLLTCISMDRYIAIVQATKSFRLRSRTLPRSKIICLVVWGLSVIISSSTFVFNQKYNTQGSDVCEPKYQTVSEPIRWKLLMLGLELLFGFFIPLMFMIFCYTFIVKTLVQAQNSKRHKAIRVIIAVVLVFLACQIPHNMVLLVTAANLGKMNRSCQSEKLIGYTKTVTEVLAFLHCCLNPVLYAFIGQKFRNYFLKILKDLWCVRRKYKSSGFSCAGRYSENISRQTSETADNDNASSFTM
# Chain of Female germline-specific tumor suppressor gld-1 (Q17339 whole entry): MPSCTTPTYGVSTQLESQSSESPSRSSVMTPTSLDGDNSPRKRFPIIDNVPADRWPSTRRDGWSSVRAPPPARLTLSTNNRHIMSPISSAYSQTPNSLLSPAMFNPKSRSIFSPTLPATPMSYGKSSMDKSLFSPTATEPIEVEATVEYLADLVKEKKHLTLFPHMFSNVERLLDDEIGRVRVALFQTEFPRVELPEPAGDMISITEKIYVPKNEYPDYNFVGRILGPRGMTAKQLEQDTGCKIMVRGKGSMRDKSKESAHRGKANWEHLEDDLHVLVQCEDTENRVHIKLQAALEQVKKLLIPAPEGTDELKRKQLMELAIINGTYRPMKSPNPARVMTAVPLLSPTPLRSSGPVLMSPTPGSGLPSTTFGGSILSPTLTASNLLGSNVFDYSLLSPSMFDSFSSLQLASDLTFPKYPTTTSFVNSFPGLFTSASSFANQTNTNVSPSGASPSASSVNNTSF
# Chain of Mu-type opioid receptor (P35372 whole entry): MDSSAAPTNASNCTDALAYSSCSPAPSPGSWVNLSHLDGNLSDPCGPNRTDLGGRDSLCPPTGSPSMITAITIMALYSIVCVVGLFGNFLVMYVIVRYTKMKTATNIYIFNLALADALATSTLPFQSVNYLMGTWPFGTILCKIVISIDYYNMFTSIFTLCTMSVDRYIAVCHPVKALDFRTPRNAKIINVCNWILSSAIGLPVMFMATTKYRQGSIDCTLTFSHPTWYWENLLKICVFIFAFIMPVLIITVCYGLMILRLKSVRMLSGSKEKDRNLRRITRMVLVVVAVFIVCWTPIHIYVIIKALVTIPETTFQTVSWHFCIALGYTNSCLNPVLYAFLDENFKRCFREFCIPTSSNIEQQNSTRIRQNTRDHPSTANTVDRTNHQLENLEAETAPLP
# Chain of Cytochrome P450 3A4 (P08684 whole entry): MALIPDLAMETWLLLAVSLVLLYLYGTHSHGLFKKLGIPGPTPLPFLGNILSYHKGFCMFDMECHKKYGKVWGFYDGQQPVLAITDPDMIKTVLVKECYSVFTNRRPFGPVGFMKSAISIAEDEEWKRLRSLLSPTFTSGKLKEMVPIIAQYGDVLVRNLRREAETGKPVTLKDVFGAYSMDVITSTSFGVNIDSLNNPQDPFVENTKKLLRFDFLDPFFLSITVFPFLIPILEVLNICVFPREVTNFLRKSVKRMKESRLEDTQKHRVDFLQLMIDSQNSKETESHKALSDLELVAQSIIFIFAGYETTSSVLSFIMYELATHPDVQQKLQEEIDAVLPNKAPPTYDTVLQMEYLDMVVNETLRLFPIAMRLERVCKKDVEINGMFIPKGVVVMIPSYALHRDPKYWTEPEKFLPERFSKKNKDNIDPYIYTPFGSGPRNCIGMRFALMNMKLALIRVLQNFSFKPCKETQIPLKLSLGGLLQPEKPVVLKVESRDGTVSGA
# Chain of Melanocortin receptor 4 (P32245 whole entry): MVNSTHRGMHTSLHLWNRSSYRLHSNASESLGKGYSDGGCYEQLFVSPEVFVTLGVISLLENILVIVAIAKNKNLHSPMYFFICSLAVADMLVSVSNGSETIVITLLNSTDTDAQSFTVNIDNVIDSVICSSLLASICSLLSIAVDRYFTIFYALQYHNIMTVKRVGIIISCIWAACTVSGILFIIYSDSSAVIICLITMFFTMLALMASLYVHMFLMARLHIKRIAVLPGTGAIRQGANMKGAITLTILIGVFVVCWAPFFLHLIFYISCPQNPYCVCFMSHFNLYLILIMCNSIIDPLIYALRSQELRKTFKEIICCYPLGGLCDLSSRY
smiles,measurement,setting,value
COc1ccc(OC)c([N+]2=C3SCCCN3C(O)(c3cccs3)C2)c1 (centres undefined),IC50,[1],> 100 µM (inactive)
same,IC50,[2],> 100 µM (inactive)
O=C(COc1ccc(F)cc1)Nc1nnc(-c2ccc(F)c(F)c2)o1,EC50,[3],3.7 µM (active)
Cc1cccc(Cc2c(C)nc3c(C(=O)NCc4ccco4)cnn3c2C)c1,EC50,[4],3.76 µM (active)
Cc1c(O)ccc2cc(S(=O)(=O)c3ccccc3)c(=O)oc12,AC50,[5],3.32 µM (active)
same,IC50,[6],4.72 µM (active)
same,IC50,Protein Rev,14.2 µM (not active)
same,IC50,[7],46.7 µM (inactive)
same,IC50,[8],> 66 µM (inactive)
CN(C)CC1CCC/C(=C\c2ccc(OC(=O)c3ccc(Cl)cc3)cc2)C1=O (centres undefined),IC50,Beta-galactosidase,> 66.6 µM (inactive)
same,IC50,[9],47.6 µM (inactive)
CCOc1ccc(OCC(=O)Nc2nccs2)cc1,EC50,[10],5.61 µM (active)
same,EC50,[11],9.78 µM (active)
same,EC50,[12],8.12 µM (active)
same,EC50,[13],6.85 µM (active)
same,AC50,[14],31.3 µM (active)
same,IC50,cells,20.2 µM (active)
same,AC50,HEK293,2.74 µM (active)
same,EC50,[15],2.37 µM (active)
same,AC50,[16],21.2 µM (active)
Cc1ccccc1NC(=O)c1ccc(COc2ccc3c(C)cc(=O)oc3c2)cc1,EC50,Melanocortin receptor 4,> 89.3 µM (inactive)
same,pEC50,[17],4.74
same,EC50,Mu-type opioid receptor,> 32 µM (inactive)
same,IC50,[18],> 32 µM (inactive)
same,EC50,[19],> 32 µM (inactive)
same,pEC50,[20],< 4.46
Cc1cccc(N2C(=O)NC(=O)/C(=C\c3cccn3-c3ccc(Cl)cc3)C2=O)c1,AC50,[21],8.91 µM (active)
same,CC50,Vero,23.4 µM (active)
same,EC50,[22],9.06 µM (active)
COC(=O)C1=C(NC(=O)c2cccc(OC)c2)CCS1,EC50,[23],> 53 µM (inactive)
same,IC50,[24],> 47.1 µM (inactive)
same,EC50,Caspase-7,> 85.3 µM (inactive)
same,AC50,Cytochrome P450 3A4,25.1 µM (inconclusive)
same,EC50,Caspase-3,> 85.3 µM (inactive)

# From ChEMBL document CHEMBL1201862, “PubChem BioAssay data set” (2004)
